Experimental data published in patent US20240025891A1 (Celgene Corporation, priority 2020, published 2024).

Test system: Onchocerca gutturosa adult male worms
Experiment: Onchocerciasis in vitro screening model Onchocerca gutturosa (worm motility score and MTT/formazan colorimetry)
Settings: Onchocerca gutturosa, read-out: O. gutt Act class

| Compound | IC50 [nM] |
| --- | --- |
| Cc1ccnc(Nc2nc(-c3ncccc3-c3ccccc3)cs2)c1 [Example 103, N-(4-methylpyridin-2-yl)-4-(3-phenylpyridin-2-yl)thiazol-2-amine] | < 200 |
| FC(F)(F)c1ccnc(Nc2nc(-c3ccc(OC4CCOCC4)cn3)cs2)c1 [Example 104, 4-(5-(tetrahydro-2H-pyran-4-yloxy)pyridin-2-yl)-N-(4-(trifluoromethyl)pyridin-2-yl)thiazol-2-amine] | < 200 |
| Cc1sc(Nc2cc(C(=O)NCC(F)(F)F)ccn2)nc1-c1ccc(OC2CCOCC2)cn1 [Example 106, 2-(5-methyl-4-(5-(tetrahydro-2H-pyran-4-yloxy)pyridin-2-yl)thiazol-2-ylamino)-N-(2,2,2-trifluoroethyl) isonicotinamide] | 200 to 500 |
| Cc1ccnc(Nc2nc(-c3ncccn3)cs2)c1 [Example 107, N-(4-methylpyridin-2-yl)-4-(pyrimidin-2-yl)thiazol-2-amine] | 500 to 5000 |
| CC(=O)N(C)c1cc(C(F)(F)F)cnc1Nc1nc(-c2cc3n(n2)CCC3)cs1 [Example 108, N-(2-(4-(5,6-dihydro-4H-pyrrolo[1,2-b]pyrazol-2-yl)thiazol-2-ylamino)-5-(trifluoromethyl)pyridin-3-yl)-N-methylacetamide] | < 200 |
| Fc1ccc(-c2csc(Nc3cc(C(F)(F)F)c(Br)cn3)n2)nc1 [Example 109, N-(5-bromo-4-(trifluoromethyl)pyridin-2-yl)-4-(5-fluoropyridin-2-yl)thiazol-2-amine] | 200 to 500 |
| Cc1ccnc(Nc2nc(-c3ncccc3C)c(-c3ccccc3)s2)c1 [Example 110, 4-(3-methylpyridin-2-yl)-N-(4-methylpyridin-2-yl)-5-phenylthiazol-2-amine] | 500 to 5000 |
| COc1ccnc(Nc2nc(-c3ccccn3)cs2)c1 [Example 121, N-(4-methoxypyridin-2-yl)-4-(pyridin-2-yl)thiazol-2-amine] | 200 to 500 |
| Cc1cnc(Nc2nc(-c3ccccn3)cs2)c(C)c1 [Example 124, N-(3,5-dimethyl-pyridin-2-yl)-4-(pyridin-2-yl)thiazol-2-amine] | < 200 |
| c1ccc(-c2cccnc2Nc2nc(-c3ccccn3)cs2)cc1 [Example 125, N-(3-phenylpyridin-2-yl)-4-(pyridin-2-yl)thiazol-2-amine] | 500 to 5000 |
| c1ccc(-c2ccnc(Nc3nc(-c4ccccn4)cs3)c2)cc1 [Example 126, N-(4-phenylpyridin-2-yl)-4-(pyridin-2-yl)thiazol-2-amine] | < 200 |
| CC(C)c1cnc(Nc2nc(-c3ccccn3)cs2)cc1C(F)(F)F [Example 127, N-(5-isopropyl-4-(trifluoro-methyl)pyridin-2-yl)-4-(pyridin-2-yl)thiazol-2-amine] | 500 to 5000 |
| c1ccc(-c2csc(Nc3cc4ccccc4cn3)n2)nc1 [Example 128, N-(isoquinolin-3-yl)-4-(pyridin-2-yl)thiazol-2-amine] | < 200 |
| Cc1cnc(Nc2nc(-c3ccccn3)cs2)cc1C(F)(F)F [Example 129, N-(5-methyl-4-(trifluoro-methyl)pyridin-2-yl)-4-(pyridin-2-yl)thiazol-2-amine] | < 200 |
| CCc1cnc(Nc2nc(-c3ccccn3)cs2)cc1C(F)(F)F [Example 130, N-(5-ethyl-4-(trifluoro-methyl)pyridin-2-yl)-4-(pyridin-2-yl)thiazol-2-amine] | < 200 |
| Cc1ccnc(Nc2nc(-c3ccccn3)c(C)s2)c1 [Example 132, 5-methyl-N-(4-methyl-pyridin-2-yl)-4-(pyridin-2-yl)thiazol-2-amine] | 200 to 500 |
| c1ccc(-c2csc(Nc3ccc4cc[nH]c4n3)n2)nc1 [Example 134, 4-(pyridin-2-yl)-N-(1H-pyrrolo [2,3-b]pyridin-6-yl)thiazol-2-amine] | < 200 |
| c1ccc(-c2csc(Nc3cc4[nH]ccc4cn3)n2)nc1 [Example 136, 4-(pyridin-2-yl)-N-(1H-pyrrolo [3,2-c]pyridin-6-yl)thiazol-2-amine] | < 200 |
| c1ccc(-c2csc(Nc3ccc(C4CCCC4)cn3)n2)nc1 [Example 138, N-(5-cyclopentyl-pyridin-2-yl)-4-(pyridin-2-yl)thiazol-2-amine] | < 200 |

The remaining lines, values ahead:

| IC50 [nM] | Compound |
| --- | --- |
| < 200 | Cc1cccnc1Nc1cnc(-c2ccc(OC3CCOCC3)cn2)s1 [Example 111, N-(3-methylpyridin-2-yl)-2-(5-(tetrahydro-2H-pyran-4-yloxy)pyridin-2-yl)thiazol-5-amine] |
| 200 to 500 | c1ccc(-c2ccnc(Nc3cnc(-c4ccccn4)s3)c2)cc1 [Example 112, N-(4-phenylpyridin-2-yl)-2-(pyridin-2-yl)thiazol-5-amine] |
| 500 to 5000 | COc1ccc(-c2ncc(Nc3cc(OC(C)C)ccn3)s2)nc1 [Example 113, N-(4-isopropoxypyridin-2-yl)-2-(5-methoxypyridin-2-yl)thiazol-5-amine] |
| < 200 | Cc1ccnc(Nc2cnc(-c3ncccc3C)s2)c1 [Example 114, 2-(3-methylpyridin-2-yl)-N-(4-methylpyridin-2-yl)thiazol-5-amine] |
| 500 to 5000 | Cc1ccnc(Nc2csc(-c3ncccc3C)n2)c1 [Example 115, 2-(3-methylpyridin-2-yl)-N-(4-methylpyridin-2-yl)thiazol-4-amine] |
| 500 to 5000 | Cc1cccnc1Nc1cc(-c2ccc(OC3CCOCC3)cn2)ns1 [Example 116, N-(3-methylpyridin-2-yl)-3-(5-(tetrahydro-2H-pyran-4-yloxy)pyridin-2-yl)isothiazol-5-amine] |
| 500 to 5000 | COc1ccc(-c2cc(Nc3cc(OC(C)C)ccn3)sn2)nc1 [Example 117, N-(4-isopropoxypyridin-2-yl)-3-(5-methoxypyridin-2-yl)isothiazol-5-amine] |
| 500 to 5000 | Cc1ccnc(Nc2cc(-c3ncccc3C)ns2)c1 [Example 118, 3-(3-methylpyridin-2-yl)-N-(4-methylpyridin-2-yl)isothiazol-5-amine] |
| 500 to 5000 | c1ccc(-c2ccnc(Nc3cc(-c4ccccn4)ns3)c2)cc1 [Example 119, N-(4-phenylpyridin-2-yl)-3-(pyridin-2-yl)isothiazol-5-amine] |
| < 200 | FC(F)(F)c1ccnc(Nc2nc(-c3ccccn3)cs2)c1 [Example 120, 4-(pyridin-2-yl)-N-(4-(trifluoromethyl)pyridin-2-yl)thiazol-2-amine] |
| 500 to 5000 | Oc1ccc(Nc2nc(-c3ccccn3)cs2)nc1 [Example 122, 6-(4-(pyridin-2-yl)thiazol-2-ylamino) pyridin-3-ol] |
| < 200 | CCc1ccc(Nc2nc(-c3ccccn3)cs2)nc1 [Example 123, N-(5-ethylpyridin-2-yl)-4-(pyridin-2-yl)thiazol-2-amine] |
| < 200 | CN1CCN(c2ccc(Nc3nc(-c4ccccn4)cs3)nc2)CC1 [Example 131, N-(5-(4-methyl-piperazin-1-yl)pyridin-2-yl)-4-(pyridin-2-yl)thiazol-2-amine] |
| 500 to 5000 | c1ccc(-c2csc(Nc3ccc4[nH]ccc4n3)n2)nc1 [Example 135, 4-(pyridin-2-yl)-N-(1H-pyrrolo [3,2-b]pyridin-5-yl)thiazol-2-amine] |
| 500 to 5000 | c1ccc(-c2csc(Nc3cc4cc[nH]c4cn3)n2)nc1 [Example 137, 4-(pyridin-2-yl)-N-(1H-pyrrolo [2,3-c]pyridin-5-yl)thiazol-2-amine] |
| < 200 | NC(=O)c1ccnc(Nc2nc(-c3ccccn3)cs2)c1 [Example 139, 2-(4-(pyridin-2-yl)thiazol-2-ylamino) iso-nicotinamide] |
